In patent publication US12180215B2, “Substituted pyrrolo[3,4-d]imidazoles as JAK inhibitors” (HENAN MEDINNO PHARMACEUTICAL TECHNOLOGY CO., LTD., priority 2019, dated 2024):

How the values were obtained:
[1] = molecular target: T1, TYK2 (Homo sapiens, UniProt P29597); assay: TYK2 kinase ADP-Glo assay (Example 59); assay type: biochemical; details: for Hillslope, TYK2 Experiment: slope of the nonlinear IC50 fit; for IC50: TYK2 (Invitrogen) 4 nM, ATP 10 μM, IRS1 0.03 mg/mL, 25° C. 60 min, read-out: IC50 (nM), TYK2 Experiment
T1 construct: purchased Invitrogen PV4790
T1 sequence (P29597 833-1187 limits assumed): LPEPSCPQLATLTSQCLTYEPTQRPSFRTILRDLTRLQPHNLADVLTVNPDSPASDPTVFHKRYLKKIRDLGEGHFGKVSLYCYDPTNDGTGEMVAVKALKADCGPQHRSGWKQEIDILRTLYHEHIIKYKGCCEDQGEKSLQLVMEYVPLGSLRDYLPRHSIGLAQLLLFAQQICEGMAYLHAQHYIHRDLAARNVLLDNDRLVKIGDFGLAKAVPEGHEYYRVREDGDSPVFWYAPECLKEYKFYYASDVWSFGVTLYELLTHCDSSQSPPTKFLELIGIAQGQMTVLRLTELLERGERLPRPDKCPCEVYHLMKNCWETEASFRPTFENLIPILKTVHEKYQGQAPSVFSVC

[2] = molecular target: T2, JAK1 (Homo sapiens, UniProt P23458); assay: JAK1 kinase ADP-Glo assay (Example 59); assay type: biochemical; parameters: purchased Invitrogen PV4774; details: for Hillslope, JAK1 Experiment: slope of the nonlinear IC50 fit; for IC50: JAK1 (Invitrogen) 4 nM, ATP 20 μM, IRS1 0.05 mg/mL, 25° C. 60 min, read-out: IC50 (nM), JAK1 Experiment
Target sequence in this assay (P23458 866-1154 limits assumed): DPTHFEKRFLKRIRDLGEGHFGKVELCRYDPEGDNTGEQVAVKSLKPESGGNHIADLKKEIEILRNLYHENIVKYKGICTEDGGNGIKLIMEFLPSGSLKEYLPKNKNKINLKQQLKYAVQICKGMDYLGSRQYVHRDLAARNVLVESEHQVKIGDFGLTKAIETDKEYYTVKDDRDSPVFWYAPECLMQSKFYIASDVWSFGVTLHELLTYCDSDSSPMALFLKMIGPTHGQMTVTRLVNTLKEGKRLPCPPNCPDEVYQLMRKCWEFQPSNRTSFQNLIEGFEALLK

[3] = molecular target: T3, JAK3 (Homo sapiens, UniProt P52333); assay: JAK3 kinase ADP-Glo assay (Example 59); assay type: biochemical; parameters: purchased Invitrogen PV3855; details: for Hillslope, JAK3 Experiment: slope of the nonlinear IC50 fit; for IC50: JAK3 (Invitrogen) 0.5 nM, ATP 10 μM, Poly (4:1 Glu, Tyr) 0.03 mg/mL, 25° C. 60 min, read-out: IC50 (nM), JAK3 Experiment
Target sequence in this assay (P52333 781-1124 limits assumed): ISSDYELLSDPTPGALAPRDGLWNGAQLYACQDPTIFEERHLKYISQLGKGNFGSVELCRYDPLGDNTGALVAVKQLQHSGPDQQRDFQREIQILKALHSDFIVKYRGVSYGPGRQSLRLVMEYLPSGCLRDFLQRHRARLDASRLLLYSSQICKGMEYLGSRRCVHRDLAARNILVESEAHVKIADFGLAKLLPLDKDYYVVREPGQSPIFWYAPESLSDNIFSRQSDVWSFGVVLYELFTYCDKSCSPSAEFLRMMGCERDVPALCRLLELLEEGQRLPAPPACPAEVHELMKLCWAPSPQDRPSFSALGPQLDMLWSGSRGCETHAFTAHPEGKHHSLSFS

[4] = molecular target: T4, JAK2 (Homo sapiens, UniProt O60674); assay: JAK2 kinase ADP-Glo assay (Example 59); details: for Hillslope, JAK2 Experiment: Example 59, slope of the nonlinear IC50 fit
Target sequence in this assay (O60674 808-1132 limits assumed): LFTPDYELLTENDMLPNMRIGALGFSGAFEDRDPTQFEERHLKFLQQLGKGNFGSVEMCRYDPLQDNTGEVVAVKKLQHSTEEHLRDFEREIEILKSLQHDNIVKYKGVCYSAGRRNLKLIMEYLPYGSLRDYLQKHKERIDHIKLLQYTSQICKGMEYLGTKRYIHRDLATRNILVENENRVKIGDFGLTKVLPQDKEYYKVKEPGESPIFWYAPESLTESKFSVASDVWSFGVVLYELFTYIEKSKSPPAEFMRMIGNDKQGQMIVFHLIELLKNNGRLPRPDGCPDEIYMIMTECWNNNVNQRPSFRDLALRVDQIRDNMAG

[5] = molecular target: T2, JAK1; assay: JAK1 kinase ADP-Glo assay (Example 60)
Target sequence in this assay (P23458 850-1154 limits assumed): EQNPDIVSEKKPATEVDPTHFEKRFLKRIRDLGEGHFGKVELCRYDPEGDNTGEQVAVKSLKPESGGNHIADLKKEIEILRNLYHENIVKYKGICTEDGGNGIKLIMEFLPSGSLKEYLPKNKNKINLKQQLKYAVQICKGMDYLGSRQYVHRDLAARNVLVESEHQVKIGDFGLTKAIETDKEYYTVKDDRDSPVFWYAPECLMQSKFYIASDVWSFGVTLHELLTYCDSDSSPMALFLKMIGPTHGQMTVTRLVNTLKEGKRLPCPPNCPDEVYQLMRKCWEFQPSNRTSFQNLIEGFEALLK

[6] = molecular target: T4, JAK2; assay: JAK2 kinase ADP-Glo assay (Example 60)
Target sequence in this assay (O60674 826-1132 limits assumed): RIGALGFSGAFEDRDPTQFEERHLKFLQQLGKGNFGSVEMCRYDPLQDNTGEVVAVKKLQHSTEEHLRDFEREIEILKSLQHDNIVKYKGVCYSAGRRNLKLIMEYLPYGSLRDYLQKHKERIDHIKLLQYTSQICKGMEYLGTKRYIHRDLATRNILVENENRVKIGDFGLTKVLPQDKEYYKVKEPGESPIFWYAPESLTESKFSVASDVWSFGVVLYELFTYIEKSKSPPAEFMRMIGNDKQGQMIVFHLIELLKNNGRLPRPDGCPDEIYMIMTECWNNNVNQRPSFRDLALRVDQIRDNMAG

[7] = molecular target: T3, JAK3; assay: JAK3 kinase ADP-Glo assay (Example 60)
Target sequence in this assay (P52333 795-1124 limits assumed): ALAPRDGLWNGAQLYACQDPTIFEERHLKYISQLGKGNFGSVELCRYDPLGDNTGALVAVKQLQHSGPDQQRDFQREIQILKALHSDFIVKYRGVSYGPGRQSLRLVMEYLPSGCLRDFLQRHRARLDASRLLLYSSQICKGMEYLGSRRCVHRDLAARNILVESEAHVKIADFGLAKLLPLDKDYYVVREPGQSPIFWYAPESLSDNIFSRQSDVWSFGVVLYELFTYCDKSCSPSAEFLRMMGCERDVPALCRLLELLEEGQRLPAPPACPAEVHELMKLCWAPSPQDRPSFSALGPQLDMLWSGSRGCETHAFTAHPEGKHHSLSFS

[8] = molecular target: T5, TYK2 (Homo sapiens, UniProt P29597); assay: TYK2 kinase ADP-Glo assay (Example 60)
T5 sequence (P29597 871-1187 limits assumed): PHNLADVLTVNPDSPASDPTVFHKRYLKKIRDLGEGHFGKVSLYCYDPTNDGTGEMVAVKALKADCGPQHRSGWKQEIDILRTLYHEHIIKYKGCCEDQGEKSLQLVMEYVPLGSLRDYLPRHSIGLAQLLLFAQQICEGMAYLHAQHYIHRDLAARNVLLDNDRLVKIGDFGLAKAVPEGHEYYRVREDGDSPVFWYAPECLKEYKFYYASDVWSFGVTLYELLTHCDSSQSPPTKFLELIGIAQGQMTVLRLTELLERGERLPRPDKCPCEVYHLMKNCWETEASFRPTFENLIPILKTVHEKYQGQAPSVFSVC

Compound | IC50 [5] | IC50 [6] | IC50 [7] | IC50 [8] | other results
O=C(Nc1nc2cccc(-c3ccc(CN4CCS(=O)(=O)CC4)cc3)n2n1)C1CC1 [Filgotinib, reference compound] |  |  |  |  | Hillslope, TYK2 Experiment [1]: 1.037; Hillslope, JAK1 Experiment [2]: 1.067; Hillslope, JAK3 Experiment [3]: 1.318; Hillslope, JAK2 Experiment [4]: 1.142
CCc1cc(O)c(F)cc1-c1ccc2c(-c3nc4c([nH]3)CN(C(=O)c3cnc(N5CCCCC5)cn3)C4)n[nH]c2c1 [MDI-2, (2-(6-(2-ethyl-5-fluoro-4-hydroxyphenyl)-1H-indazol-3-yl)-4,6-dihydropyrrolo[3,4-d]imidazol-5(1H)-yl)(5-(piperidin-1-yl)pyrazin-2-yl)ketone] |  |  |  |  | IC50 [1]: 1.63 nM; IC50 [2]: 0.806 nM; IC50 [3]: 0.765 nM; IC50 [4]: 0.772 nM
CCc1cc(O)c(F)cc1-c1ccc2c(-c3nc4c([nH]3)CN(C(=O)c3cnc(N5CCOCC5)cn3)C4)n[nH]c2c1 [MDI-201, (2-(6-(2-ethyl-5-fluoro-4-hydroxyphenyl)-1H-indazol-3-yl)-4,6-dihydropyrrolo[3,4-d]imidazol-5(1H)-yl)(5-morpholinepyrazin-2-yl)ketone] |  |  |  |  | IC50 [1]: 0.281 nM; Hillslope, TYK2 Experiment [1]: 1.411; IC50 [2]: 0.138 nM; Hillslope, JAK1 Experiment [2]: 3.487; IC50 [3]: 0.187 nM; Hillslope, JAK3 Experiment [3]: 1.989; IC50 [4]: 0.217 nM; Hillslope, JAK2 Experiment [4]: 1.633
CCc1cc(O)c(F)cc1-c1ccc2c(-c3nc4c([nH]3)CN(C(=O)c3cnn(C)c3)C4)n[nH]c2c1 [MDI-202, (2-(6-(2-ethyl-5-fluoro-4-hydroxyphenyl)-1H-indazol-3-yl)-4,6-dihydropyrrolo[3,4-d]imidazol-5(1H)-yl)(1-methyl-1H-pyrazol-4-yl)ketone] |  |  |  |  | IC50 [1]: 0.318 nM; IC50 [2]: 0.125 nM; IC50 [3]: 0.16 nM; IC50 [4]: 0.279 nM
CCc1cc(O)c(F)cc1-c1ccc2c(-c3nc4c([nH]3)CN(C(=O)C3CCN(C)CC3)C4)n[nH]c2c1 [MDI-203, (2-(6-(2-ethyl-5-fluoro-4-hydroxyphenyl)-1H-indazol-3-yl)pyrrolo[3,4-d]imidazol-5(1H, 4H,6H)-yl)(1-methylpiperidin-4-yl)ketone] |  |  |  |  | IC50 [1]: 0.328 nM; IC50 [2]: 0.16 nM; IC50 [3]: 0.212 nM; IC50 [4]: 0.208 nM
CCc1cc(O)c(F)cc1-c1ccc2c(-c3nc4c([nH]3)CN(C3CCC(O)CC3)C4)n[nH]c2c1 (stereo not drawn) [MDI-217, 5-ethyl-2-fluoro-4-(3-(5-(4-hydroxylcyclohexyl)-1,4,5,6-tetrahydropyrrolo[3,4-d]imidazol-2-yl)-1H-indazol-6-yl)phenol] |  |  |  |  | IC50 [1]: 0.391 nM; IC50 [2]: 0.122 nM; IC50 [3]: 0.137 nM
CCc1cc(O)c(F)cc1-c1ccc2c(-c3nc4c([nH]3)CN(C(=O)N3CCC(C#N)C3)C4)n[nH]c2c1 (stereo not drawn) [MDI-250, 1-(2-(6-(2-ethyl-5-fluoro-4-hydroxyphenyl)-1H-indazol-3-yl)-1,4,5,6-tetrahydropyrrolo[3,4-d]imidazol-5-carbonyl)pyrrolidin-3-nitrile] | 0.395 nM | 0.974 nM | 0.497 nM | 0.993 nM | 
CCc1cc(O)c(F)cc1-c1ccc2c(-c3nc4c([nH]3)CN(C(=O)NC3CCOC3)C4)n[nH]c2c1 (stereo not drawn) [MDI-251, 2-(6-(2-ethyl-5-fluoro-4-hydroxyphenyl)-1H-indazol-3-yl)-N-(tetrahydrofuran-3-yl)-4,6-dihydropyrrolo[3,4-d]imidazol-5(1H)-carboxamide] | 0.144 nM | 0.818 nM | 0.406 nM | 1.33 nM | 
CCc1cc(O)c(F)cc1-c1ccc2c(-c3nc4c([nH]3)CN(C(=O)OC)C4)n[nH]c2c1 [MDI-252, Methyl 2-(6-(2-ethyl-5-fluoro-4-hydroxyphenyl)-1H-indazol-3-yl)-4,6-dihydropyrrolo[3,4-d]imidazol-5(1H)-carboxylate] | 1.8 nM | 2.6 nM | 2.2 nM | 22 nM | 
CCOC(=O)N1Cc2nc(-c3n[nH]c4cc(-c5cc(F)c(O)cc5CC)ccc34)[nH]c2C1 [MDI-253, Ethyl 2-(6-(2-ethyl-5-fluoro-4-hydroxyphenyl)-1H-indazol-3-yl)-4,6-dihydropyrrolo[3,4-d]imidazol-5(1H)-carboxylate] | 2.9 nM | 1.6 nM | 1.5 nM | 31 nM | 

The next lines start with results.

IC50 [5] | IC50 [6] | IC50 [7] | IC50 [8] | Compound | other results
0.7 nM | 3.06 nM | 2.71 nM | 6.14 nM | CCc1cc(O)c(F)cc1-c1ccc2c(-c3nc4c([nH]3)CN(C(=O)CC#N)C4)n[nH]c2c1 [MDI-256, 3-(2-(6-(2-ethyl-5-fluoro-4-hydroxyphenyl)-1H-indazol-3-yl)-4,6-dihydropyrrolo[3,4-d]imidazol-5(1H)-yl)-3-oxypropionitrile] | 
0.185 nM | 0.6 nM | 0.381 nM | 0.684 nM | CCc1cc(O)c(F)cc1-c1ccc2c(-c3nc4c([nH]3)CN(C(=O)N(C)C)C4)n[nH]c2c1 [MDI-257, 2-(6-(2-ethyl-5-fluoro-4-hydroxyphenyl)-1H-indazol-3-yl)-N,N-dimethyl-4,6-dihydropyrrolo[3,4-d]imidazol-5(1H)-carboxamide] | 
0.939 nM | 3.31 nM | 2.36 nM | 6.27 nM | CCc1cc(O)c(F)cc1-c1ccc2c(-c3nc4c([nH]3)CN(C(=O)NCCC#N)C4)n[nH]c2c1 [MDI-258, N-(2-cyanoethyl)-2-(6-(2-ethyl-5-fluoro-4-hydroxyphenyl)-1H-indazol-3-yl)-4,6-dihydropyrrolo[3,4-d]imidazole-5(1H)-carboxamide] | 
0.659 nM | 1.3 nM | 1.29 nM | 2.94 nM | CCc1cc(O)c(F)cc1-c1ccc2c(-c3nc4c([nH]3)CN(C(=O)NC3CC3)C4)n[nH]c2c1 [MDI-259, N-cyclopropyl-2-(6-(2-ethyl-5-fluoro-4-hydroxyphenyl)-1H-indazol-3-yl)-4,6-dihydropyrrolo[3,4-d]imidazol-5(1H)-carboxamide] | 
2.28 nM | 2.99 nM | 2.47 nM | 8.98 nM | CCc1cc(O)c(F)cc1-c1ccc2c(-c3nc4c([nH]3)CN(C(=O)NC3CCC3)C4)n[nH]c2c1 [MDI-260, N-cyclobutyl-2-(6-(2-ethyl-5-fluoro-4-hydroxyphenyl)-1H-indazol-3-yl)-4,6-dihydropyrrolo[3,4-d]imidazol-5(1H)-carboxamide] | 
0.154 nM | 0.703 nM | 0.473 nM | 1.16 nM | CCc1cc(O)c(F)cc1-c1ccc2c(-c3nc4c([nH]3)CN(C(=O)N3CC5(CNC5)C3)C4)n[nH]c2c1 [MDI-261, (2-(6-(2-ethyl-5-fluoro-4-hydroxyphenyl)-1H-indazol-3-yl)-4,6-dihydropyrrolo[3,4-d]imidazol-5(1H)-yl)(2,6-diazaspiro[3.3]heptan-2-yl)ketone] | 
0.319 nM | 1.54 nM | 1.22 nM | 2.59 nM | CCc1cc(O)c(F)cc1-c1ccc2c(-c3nc4c([nH]3)CN(C(=O)[C@@H]3CCCN3)C4)n[nH]c2c1 [MDI-262, (S)-6-(2-ethyl-5-fluoro-4-hydroxyphenyl)-3-(5-prolyl-1,4,5,6-tetrahydropyrrolo[3,4-d]imidazol-2-yl)-1H-indazol] | 
0.12 nM | 0.717 nM | 0.458 nM | 0.717 nM | CCc1cc(O)c(F)cc1-c1ccc2c(-c3nc4c([nH]3)CN(C(=O)[C@H]3CCCN3)C4)n[nH]c2c1 [MDI-263, (R)-6-(2-ethyl-5-fluoro-4-hydroxyphenyl)-3-(5-prolyl-1,4,5,6-tetrahydropyrrolo[3,4-d]imidazol-2-yl)-1H-indazol] | 
